Experimental data from ChEMBL document CHEMBL4507324 (2021).

Columns and labels:
Conditions in all cases: Compound concentration 100.0 nM
[1] = tested on: Tyrosine-protein kinase ABL1 (Homo sapiens), P00519 [F317L]
[2] = tested on: Tyrosine-protein kinase ABL1 (Homo sapiens), P00519 [Q252H]
[3] = target: RAC-beta serine/threonine-protein kinase (Homo sapiens) (UniProt P31751)
[4] = target: NUAK family SNF1-like kinase 1 (Homo sapiens) (UniProt O60285)
[5] = target: Cytoplasmic tyrosine-protein kinase BMX (Homo sapiens) (UniProt P51813)
[6] = target: Protein-tyrosine kinase 6 (Homo sapiens) (UniProt Q13882)
[7] = target: Peripheral plasma membrane protein CASK (Homo sapiens) (UniProt O14936)
[8] = target: Cyclin-dependent kinase 4 (Homo sapiens) (UniProt P11802)
[9] = target: Cyclin-dependent kinase 7 (Homo sapiens) (UniProt P50613)
[10] = target: Citron Rho-interacting kinase (Homo sapiens) (UniProt O14578)
[11] = target: Dual specificity tyrosine-phosphorylation-regulated kinase 1B (Homo sapiens) (UniProt Q9Y463)
[12] = tested on: Epidermal growth factor receptor (Homo sapiens), P00533 [T790M]
[13] = target: Ephrin type-A receptor 6 (Homo sapiens) (UniProt Q9UF33)
[14] = target: Ephrin type-A receptor 7 (Homo sapiens) (UniProt Q15375)
[15] = target: Ephrin type-A receptor 8 (Homo sapiens) (UniProt P29322)
[16] = target: Mitogen-activated protein kinase 3 (Homo sapiens) (UniProt P27361)
[17] = target: Mitogen-activated protein kinase kinase kinase kinase 1 (Homo sapiens) (UniProt Q92918)
[18] = target: Insulin-like growth factor 1 receptor (Homo sapiens) (UniProt P08069)
[19] = target: Insulin receptor (Homo sapiens) (UniProt P06213)
[20] = target: Insulin receptor-related protein (Homo sapiens) (UniProt P14616)
[21] = target: Interleukin-1 receptor-associated kinase 1 (Homo sapiens) (UniProt P51617)
[22] = target: Tyrosine-protein kinase JAK1 (Homo sapiens) (UniProt P23458)
[23] = target: Mitogen-activated protein kinase kinase kinase 15 (Homo sapiens) (UniProt Q6ZN16)
[24] = target: Serine/threonine-protein kinase MARK2 (Homo sapiens) (UniProt Q7KZI7)
[25] = target: Tyrosine-protein kinase Mer (Homo sapiens) (UniProt Q12866)
[26] = target: Myosin light chain kinase (Homo sapiens) (UniProt Q32MK0)
[27] = target: Serine/threonine-protein kinase MRCK beta (Homo sapiens) (UniProt Q9Y5S2)
[28] = target: Serine/threonine-protein kinase 38 (Homo sapiens) (UniProt Q15208)
[29] = target: Mitogen-activated protein kinase kinase kinase 14 (Homo sapiens) (UniProt Q99558)
[30] = target: Serine/threonine-protein kinase PAK 5 (Homo sapiens) (UniProt Q9P286)
[31] = target: Platelet-derived growth factor receptor alpha (Homo sapiens) (UniProt P16234)
[32] = target: Cyclin-dependent kinase 2 homolog (Plasmodium falciparum (isolate 3D7)) (UniProt P61075)
[33] = target: Cyclin-dependent kinase 15 (Homo sapiens) (UniProt Q96Q40)
[34] = target: Phosphorylase b kinase gamma catalytic chain, skeletal muscle/heart isoform (Homo sapiens) (UniProt Q16816)
[35] = target: Phosphorylase b kinase regulatory subunit alpha, liver isoform (Homo sapiens) (UniProt P46019)
[36] = tested on: Phosphatidylinositol 4,5-bisphosphate 3-kinase catalytic subunit alpha isoform (Homo sapiens), P42336 [C420R]
[37] = target: Phosphatidylinositol 4,5-bisphosphate 3-kinase catalytic subunit gamma isoform (Homo sapiens) (UniProt P48736)
[38] = target: Membrane-associated tyrosine- and threonine-specific cdc2-inhibitory kinase (Homo sapiens) (UniProt Q99640)
[39] = target: Dual serine/threonine and tyrosine protein kinase (Homo sapiens) (UniProt Q6XUX3)
[40] = target: Ribosomal protein S6 kinase alpha-4 (Homo sapiens) (UniProt O75676)
[41] = target: Ribosomal protein S6 kinase alpha-2 (Homo sapiens) (UniProt Q15349)
[42] = target: Serine/threonine-protein kinase SBK1 (Homo sapiens) (UniProt Q52WX2)
[43] = target: Tyrosine-protein kinase Srms (Homo sapiens) (UniProt Q9H3Y6)
[44] = target: Serine/threonine-protein kinase 33 (Homo sapiens) (UniProt Q9BYT3)
[45] = target: Vascular endothelial growth factor receptor 2 (Homo sapiens) (UniProt P35968)

Measured: residual activity

Tyrosine-protein kinase JAK1 (Homo sapiens), sequence (P23458 whole entry): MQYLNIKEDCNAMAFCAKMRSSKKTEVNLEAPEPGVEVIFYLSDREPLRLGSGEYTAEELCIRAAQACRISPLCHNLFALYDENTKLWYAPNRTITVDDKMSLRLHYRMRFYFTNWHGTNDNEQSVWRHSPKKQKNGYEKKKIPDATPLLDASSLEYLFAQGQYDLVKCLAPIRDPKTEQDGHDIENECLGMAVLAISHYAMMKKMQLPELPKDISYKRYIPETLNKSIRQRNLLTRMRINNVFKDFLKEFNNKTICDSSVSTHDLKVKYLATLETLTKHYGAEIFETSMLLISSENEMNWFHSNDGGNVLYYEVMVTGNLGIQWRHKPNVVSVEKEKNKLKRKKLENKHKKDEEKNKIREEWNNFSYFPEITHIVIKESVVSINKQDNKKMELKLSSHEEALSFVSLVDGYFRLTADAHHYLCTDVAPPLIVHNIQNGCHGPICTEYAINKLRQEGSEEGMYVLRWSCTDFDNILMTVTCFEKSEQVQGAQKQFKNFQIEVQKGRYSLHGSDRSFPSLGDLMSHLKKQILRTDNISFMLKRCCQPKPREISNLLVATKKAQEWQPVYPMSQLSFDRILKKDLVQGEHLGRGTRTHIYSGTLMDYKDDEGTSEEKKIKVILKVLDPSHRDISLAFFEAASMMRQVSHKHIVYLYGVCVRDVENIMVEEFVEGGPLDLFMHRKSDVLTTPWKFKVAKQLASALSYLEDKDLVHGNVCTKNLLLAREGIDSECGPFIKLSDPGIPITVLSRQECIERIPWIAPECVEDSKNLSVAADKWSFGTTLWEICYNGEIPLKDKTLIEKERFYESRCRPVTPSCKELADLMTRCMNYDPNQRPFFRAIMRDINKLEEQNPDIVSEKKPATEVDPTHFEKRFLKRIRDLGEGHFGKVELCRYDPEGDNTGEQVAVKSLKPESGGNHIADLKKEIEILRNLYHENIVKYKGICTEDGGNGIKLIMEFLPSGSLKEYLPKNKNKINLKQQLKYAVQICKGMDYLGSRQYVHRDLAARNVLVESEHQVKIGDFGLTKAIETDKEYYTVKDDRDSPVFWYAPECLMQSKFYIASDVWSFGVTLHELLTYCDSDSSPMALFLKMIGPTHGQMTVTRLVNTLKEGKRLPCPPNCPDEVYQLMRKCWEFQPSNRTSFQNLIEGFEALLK
Dual specificity tyrosine-phosphorylation-regulated kinase 1B (Homo sapiens), sequence (Q9Y463 whole entry, looked up): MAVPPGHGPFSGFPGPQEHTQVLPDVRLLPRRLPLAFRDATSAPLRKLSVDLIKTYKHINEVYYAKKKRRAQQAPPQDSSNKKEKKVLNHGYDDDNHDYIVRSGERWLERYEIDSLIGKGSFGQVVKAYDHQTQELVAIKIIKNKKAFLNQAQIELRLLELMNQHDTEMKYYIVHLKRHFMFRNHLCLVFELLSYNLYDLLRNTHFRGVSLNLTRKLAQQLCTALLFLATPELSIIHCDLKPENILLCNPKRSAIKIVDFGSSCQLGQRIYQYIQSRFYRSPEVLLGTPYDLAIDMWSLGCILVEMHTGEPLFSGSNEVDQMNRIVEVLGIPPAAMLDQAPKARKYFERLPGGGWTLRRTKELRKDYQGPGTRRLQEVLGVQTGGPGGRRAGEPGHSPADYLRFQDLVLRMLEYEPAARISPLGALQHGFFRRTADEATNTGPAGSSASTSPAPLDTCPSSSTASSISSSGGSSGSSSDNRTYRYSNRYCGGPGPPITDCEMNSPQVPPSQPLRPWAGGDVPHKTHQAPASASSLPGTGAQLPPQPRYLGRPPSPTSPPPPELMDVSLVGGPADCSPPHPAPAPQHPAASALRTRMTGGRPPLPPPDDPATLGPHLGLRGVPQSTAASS
Ephrin type-A receptor 6 (Homo sapiens), sequence (Q9UF33 whole entry): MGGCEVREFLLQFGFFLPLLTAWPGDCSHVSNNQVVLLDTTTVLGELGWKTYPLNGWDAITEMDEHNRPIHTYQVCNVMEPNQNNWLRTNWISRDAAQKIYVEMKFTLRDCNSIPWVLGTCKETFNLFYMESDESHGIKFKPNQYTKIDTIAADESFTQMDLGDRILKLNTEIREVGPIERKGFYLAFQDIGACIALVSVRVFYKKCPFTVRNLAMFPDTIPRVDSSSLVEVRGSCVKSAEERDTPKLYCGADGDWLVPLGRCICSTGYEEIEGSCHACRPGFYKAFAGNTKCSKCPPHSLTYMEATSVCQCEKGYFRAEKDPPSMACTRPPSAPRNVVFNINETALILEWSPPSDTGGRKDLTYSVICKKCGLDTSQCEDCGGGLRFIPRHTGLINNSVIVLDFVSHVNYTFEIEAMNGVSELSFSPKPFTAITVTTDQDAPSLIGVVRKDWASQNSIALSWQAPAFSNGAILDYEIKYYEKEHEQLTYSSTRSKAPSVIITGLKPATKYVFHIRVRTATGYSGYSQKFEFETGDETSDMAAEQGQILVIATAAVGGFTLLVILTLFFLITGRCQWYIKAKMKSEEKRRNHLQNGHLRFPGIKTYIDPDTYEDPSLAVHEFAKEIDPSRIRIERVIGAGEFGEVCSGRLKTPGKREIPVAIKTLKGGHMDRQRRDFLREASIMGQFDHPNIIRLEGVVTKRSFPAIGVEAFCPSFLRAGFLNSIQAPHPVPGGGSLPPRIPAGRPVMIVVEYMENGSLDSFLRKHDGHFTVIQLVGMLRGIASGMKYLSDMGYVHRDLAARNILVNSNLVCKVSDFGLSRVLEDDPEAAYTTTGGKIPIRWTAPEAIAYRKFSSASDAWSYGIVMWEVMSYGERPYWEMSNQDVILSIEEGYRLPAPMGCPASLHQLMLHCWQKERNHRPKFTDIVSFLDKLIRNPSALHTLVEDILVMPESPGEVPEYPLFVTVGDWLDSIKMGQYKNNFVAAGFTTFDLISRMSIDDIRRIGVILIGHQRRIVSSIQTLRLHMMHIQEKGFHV
Vascular endothelial growth factor receptor 2 (Homo sapiens), sequence (P35968 whole entry): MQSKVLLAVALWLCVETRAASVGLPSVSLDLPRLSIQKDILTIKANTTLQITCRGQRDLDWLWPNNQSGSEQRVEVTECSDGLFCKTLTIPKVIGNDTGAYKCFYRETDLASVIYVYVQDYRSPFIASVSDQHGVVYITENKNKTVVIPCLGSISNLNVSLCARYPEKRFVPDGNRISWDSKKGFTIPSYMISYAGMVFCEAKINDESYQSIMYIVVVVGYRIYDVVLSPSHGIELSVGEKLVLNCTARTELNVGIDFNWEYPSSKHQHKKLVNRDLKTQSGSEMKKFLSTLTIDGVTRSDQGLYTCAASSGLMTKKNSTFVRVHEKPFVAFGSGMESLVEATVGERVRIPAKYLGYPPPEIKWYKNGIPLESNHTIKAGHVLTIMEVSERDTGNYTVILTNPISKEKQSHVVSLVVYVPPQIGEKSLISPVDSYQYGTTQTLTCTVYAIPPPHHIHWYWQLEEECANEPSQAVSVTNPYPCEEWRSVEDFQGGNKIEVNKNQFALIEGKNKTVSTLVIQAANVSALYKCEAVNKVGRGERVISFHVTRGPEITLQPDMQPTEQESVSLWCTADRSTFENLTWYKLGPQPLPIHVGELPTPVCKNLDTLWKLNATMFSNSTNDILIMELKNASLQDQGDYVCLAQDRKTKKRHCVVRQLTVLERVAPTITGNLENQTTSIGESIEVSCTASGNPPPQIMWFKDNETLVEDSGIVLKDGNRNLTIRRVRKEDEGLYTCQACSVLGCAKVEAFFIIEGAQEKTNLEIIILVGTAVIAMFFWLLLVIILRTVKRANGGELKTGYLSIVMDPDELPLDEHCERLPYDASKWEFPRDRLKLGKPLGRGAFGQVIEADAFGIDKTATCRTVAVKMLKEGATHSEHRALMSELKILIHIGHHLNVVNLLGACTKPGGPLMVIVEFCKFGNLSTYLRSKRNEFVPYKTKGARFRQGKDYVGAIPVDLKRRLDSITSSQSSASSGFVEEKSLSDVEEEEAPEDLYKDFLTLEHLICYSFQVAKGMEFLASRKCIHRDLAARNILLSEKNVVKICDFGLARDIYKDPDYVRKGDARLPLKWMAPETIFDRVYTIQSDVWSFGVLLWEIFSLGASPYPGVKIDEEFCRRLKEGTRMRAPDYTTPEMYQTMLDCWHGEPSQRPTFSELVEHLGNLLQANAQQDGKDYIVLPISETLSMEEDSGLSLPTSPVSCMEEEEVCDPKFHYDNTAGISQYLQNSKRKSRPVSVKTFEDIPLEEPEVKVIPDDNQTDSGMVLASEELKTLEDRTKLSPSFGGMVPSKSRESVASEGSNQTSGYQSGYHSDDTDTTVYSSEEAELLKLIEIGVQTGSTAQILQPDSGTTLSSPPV
Serine/threonine-protein kinase MARK2 (Homo sapiens), sequence (Q7KZI7 whole entry): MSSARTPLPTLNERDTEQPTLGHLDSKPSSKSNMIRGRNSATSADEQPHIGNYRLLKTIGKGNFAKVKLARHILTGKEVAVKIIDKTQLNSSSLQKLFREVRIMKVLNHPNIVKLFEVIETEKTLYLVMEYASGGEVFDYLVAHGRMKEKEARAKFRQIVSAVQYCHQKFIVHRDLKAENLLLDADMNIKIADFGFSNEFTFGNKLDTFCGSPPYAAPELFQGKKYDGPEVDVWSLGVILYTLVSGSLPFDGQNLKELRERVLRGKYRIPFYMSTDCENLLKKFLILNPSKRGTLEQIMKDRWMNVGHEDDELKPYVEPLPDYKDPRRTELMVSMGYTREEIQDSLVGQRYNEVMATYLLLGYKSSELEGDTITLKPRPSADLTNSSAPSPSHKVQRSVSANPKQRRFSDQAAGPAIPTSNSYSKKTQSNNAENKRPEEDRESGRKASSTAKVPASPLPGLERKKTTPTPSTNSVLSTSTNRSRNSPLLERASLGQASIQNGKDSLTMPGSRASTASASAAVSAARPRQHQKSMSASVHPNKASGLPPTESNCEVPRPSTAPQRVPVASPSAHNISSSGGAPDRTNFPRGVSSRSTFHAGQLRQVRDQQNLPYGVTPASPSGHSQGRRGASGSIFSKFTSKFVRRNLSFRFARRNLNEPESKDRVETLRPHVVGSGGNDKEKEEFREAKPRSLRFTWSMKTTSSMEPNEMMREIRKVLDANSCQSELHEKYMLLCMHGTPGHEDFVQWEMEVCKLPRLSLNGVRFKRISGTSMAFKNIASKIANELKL

CS(=O)(=O)N1CCCC(NC(=O)[C@H](CCC2CCCCC2)NC(=O)c2ccc(CNc3ncnc4c3nnn4-c3ccccc3)cc2)C1 (stereo not given in full) [SR-301]
inactive: [1] 91% | [2] 89% | [3] 100% | [4] 100% | [5] 79% | [6] 76% | [7] 100% | [8] 91% | [9] 100% | [10] 98% | [11] 100% | [12] 100% | [13] 100% | [14] 98% | [15] 100% | [16] 89% | [17] 100% | [18] 100% | [19] 100% | [20] 100% | [21] 100% | [22] 100% | [23] 74% | [24] 100% | [25] 91% | [26] 100% | [27] 90% | [28] 83% | [29] 83% | [30] 100% | [31] 91% | [32] 100% | [33] 74% | [34] 87% | [35] 100% | [36] 89% | [37] 85% | [38] 74% | [39] 80% | [40] 91% | [41] 100% | [42] 82% | [43] 98% | [44] 84% | [45] 85%

CS(=O)(=O)N1CCCC(NC(=O)[C@H](CCC2CCCCC2)NC(=O)c2ccc(CNC(=O)c3cnc4ccccn34)cc2)C1 (stereo not given in full) [SR-302]
inactive: [1] 100% | [3] 93% | [4] 88% | [5] 100% | [6] 81% | [7] 100% | [8] 99% | [9] 100% | [10] 100% | [11] 100% | [12] 100% | [13] 100% | [14] 96% | [15] 89% | [16] 67% | [17] 95% | [18] 73% | [19] 100% | [20] 100% | [21] 100% | [22] 64% | [23] 100% | [24] 100% | [25] 94% | [26] 88% | [27] 100% | [28] 81% | [29] 100% | [30] 97% | [31] 99% | [32] 100% | [33] 95% | [34] 68% | [35] 100% | [36] 93% | [37] 96% | [38] 100% | [39] 100% | [40] 100% | [41] 94% | [42] 77% | [43] 71% | [44] 100% | [45] 96%
active: [2] 37%
